Holding throughout (type): cell-based
Assay [1] deals with MCF-10A normal-like breast epithelial cells. In words: MTT dose response assay, MCF-10A. The note with it: Homo sapiens, 72 h.
Assay [2] concerns JIMT-1 breast cancer cells. In words: MTT dose response assay, JIMT-1. The note with it: Homo sapiens, JIMT-1, 72 h. (Tetrazolium assays rely on reduction of a dye to a coloured formazan, in cell work by metabolically active cells.)
Assay [3] deals with MCF-7 breast cancer cells. In words: MTT dose response assay, MCF-7. The note with it: Homo sapiens, MCF7, 72 h.
[4] abbreviates: read-out: IC50 (mean of three repeats ± SD).

Like-named read-outs stand apart in the source and are kept apart here.

Turning to `C=C[C@@]12COC(=O)C(=C)[C@@H]1[C@@H](O)[C@H](C(=C)C(=O)OC)[C@@H](OC(=O)C(=C)CO)C2` [Vernodalol, reference compound], the values for the IC50 in assay [1] (setting [4]) and in assay [2] (setting [4]) were 12.1 µM and 11.1 µM, respectively.
As to `C=C[C@@]12COC(=O)C(=C)[C@@H]1[C@H]1OC(=O)C(=C)[C@@H]1[C@@H](O)C2` [Vernolepin (5), Vernolepin], the results for the IC50 in assay [1], in assay [3] and in assay [2] were 2.3 ± 0.2 µM, 15.9 ± 0.6 µM and 1.7 ± 0.3 µM, respectively.
